Results taken from patent publication US20260294885A1, “TREATMENT OF INFLAMMATORY CONDITIONS COMPRISING IMU-856” (IMMUNIC AG, priority 2023, published 2026).
Entries after “also recorded” stand apart in the source; their conditions may differ.

System: patients with celiac disease
Test: Patient-reported symptoms with gluten challenge (Celiac Disease Symptom Diary), Part C
Type: in vivo, human
Parameters: key to mean change in bloating / mean change in tiredness: change on 5-point severity scale (1=none to 5=very severe)
Settings: for mean change in abdominal pain (SD) / mean change in diarrhea (SD) / mean change in nausea (SD): last day before to first day of gluten challenge, CDSD 5-point scale
Description: In an embodiment, the celiac disease patient is experiencing one or more symptoms as assessed by the CDSD Version 2.1® (ImmunogenX LLC) at the start of treatment with IMU-856 or a pharmaceutically acceptable salt or a solvate thereof. The CDSD questionnaire was developed to assess symptom severity in clinical trials in subjects with celiac disease. The CDSD includes five symptoms (diarrhea, abdominal pain, bloating, nausea, tiredness) asking participants about the severity of celiac disease symptoms they experience each day. Subjects rate their symptom severity on a 5-point scale (1=none, 2=mild, 3=moderate, 4=severe, 5=very severe). In various embodiments, the celiac disease patient is experiencing one or more significant or severe symptomatic days (based on CDSD) at the start of treatment with IMU-856 or a pharmaceutically acceptable salt or a solvate thereof.
Improvement in clinical symptoms of gluten exposure: On the first day of gluten challenge, the placebo group (N=12) experienced a marked average increase in symptoms, as assessed by the Celiac Disease Symptom Diary using a 5-point scale of 0.8 for nausea, 0.8 for abdominal pain, and 0.8 diarrhea. In contrast, among the pooled IMU-856 arms (N=26), these average increases were only 0.4 for nausea, 0.5 for abdominal pain and 0.6 for diarrhea.

[1] = 160 mg (N 11), Day 14 to Day 29
[2] = 160 mg (N 13), Day 13 to Day 14
[3] = All Active (N 20), Day 14 to Day 29
[4] = All Active (N 26), Day 13 to Day 14
[5] = continued treatment during gluten challenge

Cn1c(COc2cc(C(F)(F)F)ccn2)nnc1[C@H]1CC[C@H](c2cnn([C@H]3CC[C@H](N4CC5(CCO5)C4)CC3)c2)CC1 [IMU-856, 6-(trans-4-(4-(trans-4-(4-methyl-5-(((4-(trifluoromethyl)pyridin-2-yl)oxy)methyl)-4H-1,2,4-triazol-3-yl)cyclohexyl)-1H-pyrazol-1-yl)cyclohexyl)-1-oxa-6-azaspiro[3.3]heptane]
mean change in bloating (80 mg (N 9), Day 14 to Day 29): −0.4 | mean change in tiredness (80 mg (N 9), Day 14 to Day 29): −0.1 | mean change in bloating (80 mg (N 13), Day 13 to Day 14): 0.3 | mean change in tiredness (80 mg (N 13), Day 13 to Day 14): 0.2 | mean change in abdominal pain (SD) (80 mg (N = 13)): 0.5 (0.78) | mean change in diarrhea (SD) (80 mg (N = 13)): 0.5 (0.97) | mean change in nausea (SD) (80 mg (N = 13)): 0.2 (0.69) | mean change in bloating [1]: −0.5 | mean change in tiredness [1]: −0.5 | mean change in bloating [2]: 0.5 | mean change in tiredness [2]: 0.5 | mean change in abdominal pain (SD) (160 mg (N = 13)): 0.4 (0.87) | mean change in diarrhea (SD) (160 mg (N = 13)): 0.6 (1.12) | mean change in nausea (SD) (160 mg (N = 13)): 0.7 (1.03) | mean change in bloating [3]: −0.5 | mean change in tiredness [3]: −0.3 | mean change in bloating [4]: 0.4 | mean change in tiredness [4]: 0.3 | gluten-induced symptoms (Part C): attenuated | symptoms (nausea, abdominal pain or diarrhea) (after first day of gluten challenge (Day 14), versus placebo): fewer symptoms | patient-reported ability to perform daily activities [5]: improvement | recovery from bloating symptoms [5]: recover to a higher extent; also recorded: improvement | recovery from tiredness symptoms [5]: recover to a higher extent; also recorded: improvement | protection against acute gluten-induced symptoms (first day of gluten challenge): initial signal of protection against acute gluten-induced symptoms | protection against chronic gluten-induced symptoms (human, in vivo): initial signal of protection against chronic gluten-induced symptoms
